In experiment [1] the test system is Empire apple trees. Put plainly: Example 5: crop load and fruit size of Empire apple trees. Particulars: 100 ppm BA or mixture of 100 ppm BA and 1000 ppm ABA; sprayed at 8 mm fruit size; harvested at maturity. Type of experiment: in vivo. As for the experimental part: Empire apple trees were selected for tree size and uniformity of bloom. Treatments were applied to five replicate trees per treatment when the average fruit size was 8 mm. BA at 100 ppm was applied as a dilute solution sprayed on whole trees to the drip point on five trees. […] Five trees were left untreated to act as control trees. At the end the season when the fruit were mature all the fruit were harvested and the number of fruit per tree and the average fruit size were determined.

In experiment [2] the test system is Pioneer McIntosh apple trees. Briefly: Example 4: fruit set of Pioneer McIntosh apple trees after BA and ABA sprays. Type of experiment: in vivo. Conditions: 75 ppm BA whole-tree spray, 300 ppm ABA on tagged limbs, or sequential BA then ABA, applied at 9 mm fruit size; for % Fruit Set: counted after June drop. How it is done: Pioneer McIntosh apple trees were selected for uniformity of bloom and 2 limbs per tree were tagged and all blossom clusters on the tagged limbs were counted. Treatments were applied to four replicate trees per treatment when the average fruit size was 9 mm. BA at 75 ppm was applied as a dilute solution sprayed on whole trees to the drip point on two of the four trees in each replication. […] The solution was shaken and then allowed to sit for 5 minutes. […] The fourth tree in each block received no spray and served as the control. At the end of the June drop period in July, all fruit on the tagged limbs was counted and recorded.

Experiment [3] has as its system Cabernet Franc grapes. Briefly: Example 1: dipping Cabernet Franc flower clusters at full bloom, berry number and cluster compactness. It counts as in vivo, grape. Particulars: clusters dipped at full bloom; 10 ppm GA3, 300 ppm ABA or both together; harvested at commercial maturity; n = 10 clusters. As for the experimental part: One cluster was tagged and treated with each of the treatments on each of 10 vines. The clusters were harvested at commercial maturity. Cluster compactness was assessed by counting the number of berries per cluster and measuring the total rachis length of each cluster and then calculating the number of berries per cm of rachis.

Experiment [4] deals with Cabernet Franc grapes. Briefly: Example 2: dipping Cabernet Franc flower clusters at full bloom, berry number and cluster compactness. Conditions: clusters dipped at full bloom; 300 ppm ABA, 10 ppm GA3 or 300 ppm ABA mixed with 10 ppm GA3; n = 10 clusters. Type of experiment: in vivo, grape. How it is done: One cluster was tagged and treated with each of the treatments on each of 10 vines. The clusters were harvested at commercial maturity and berry number and cluster compactness were evaluated.

Experiment [5] relates to European seedless cucumber (var. Flamingo) plants. Briefly: Example 6: foliar spray with ABA, abortion of cucumber fruits. It counts as in vivo. Conditions: ABA 100 ppm sprayed to drip at 20 node growth stage. How it is done: European seedless cucumber (var. Flamingo) plants were grown in a greenhouse.
Experiment [6] deals with Thompson Seedless grape. Briefly: Example 3: spraying Thompson Seedless grape vines, bunch compactness at harvest. Conditions: sprayed twice, at 70% bloom and 100% bloom. Type of experiment: in vivo. As for the experimental part:
The applications were made twice, once at 70% bloom and once at 100% bloom. Grape bunch compactness was rated at harvest and the average bunch mass and the average number of berries per gram of rachis was determined.

As for `c1ccc(CNc2ncnc3nc[nH]c23)cc1` [BA, benzyladenine], in experiment [1], the “Average Fruit Weight” value amounted to 123 g and the “Number of Fruit per Tree” value is given as 137. In addition, in experiment [2], the “Average Fruit Weight” value came out at 190 g and the “% Fruit Set” value is recorded as 75%.

Take “(S)-5-(1-hydroxy-2,6,6,-trimethyl-4-oxo-2-cyclohexen-1-yl)-3-methyl-(2Z,4E)-pentadienoic acid [ABA]”: in experiment [3], the “Number of berries per cluster” value came to 53.0 and the “Number of berries per cm rachis” value is listed as 1.87. Besides, in experiment [4], the “Number of berries per cluster” value is 54.3 and the “Number of berries per cm rachis” value was found to be 2.0. Moreover, the “Rate of fruit abortion compared to the control plants” value in experiment [5] is reported as “twice”. Moreover, the “Percentage of basal 18 cucumber fruits per plant that aborted” value in experiment [5] (greenhouse, n = 5 replicate plants) stood at 68%. For the same molecule, in experiment [2], the “Average Fruit Weight” value is reported as 146 g and the “% Fruit Set” value was found to be 25%.

For gibberellic acid [GA3], the “Bunch Compactness” value in experiment [6] (rating scale 1 = very loose bunch, 5 = very tight bunch, rated at harvest) amounted to 2.3. In addition, in experiment [6] (at harvest), the “Average bunch mass” value came to 830 g and the “Average number of berries per gram of rachis” value worked out at 5.7. In addition, in experiment [3], the “Number of berries per cluster” value amounted to 34.8 and the “Number of berries per cm rachis” value is 1.33. Also, in experiment [4], the “Number of berries per cluster” value was 37.6 and the “Number of berries per cm rachis” value came out at 1.35.

Source of the values: patent US8440592B2, “Use of abscisic acid combinations for thinning” (Valent BioSciences Corporation, priority 2007, dated 2013).
